Assays:
[1] = target: T1, HCV NS3/4A protease complex (UniProt P27958, C1454S/C1711G, species not given); assay: Recombinant HCV NS3/4A protease complex FRET peptide assay (strain not stated); type: biochemical; details: HCV NS3/4A protease enzyme assay, read-out: IC50 range
T1 construct: fused on or other part: Three-lysine solubilising tail at the C-terminus of NS4A

[2] = system: HCV replicon in Huh7 cells; assay: HCV replicon cell-based assay; design: species or system HCV strain 1B; details: Hepatitis C virus, Huh-7, 96 h, HCV replicon, 4 days, read-out: EC50 range
Method in brief: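 Huh7 cells carrying a genotype 1b subgenomic replicon (NS3-NS5B, neo) treated 4 days at 37° C with compound (0.5% DMSO final). NS3 protease activity read in lysates with 10 μM FRET peptide (340/490 nm, kinetic), giving EC50. Confirmed by Taqman qRT-PCR of HCV RNA and a Renilla luciferase replicon.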

SMILES | IC50 [1] | EC50 [2]
C=CC1C[C@]1(NC(=O)[C@@H]1C[C@@H](OC(=O)Nc2ccccc2C(=O)O)CN1C(=O)[C@@H](NC(=O)OC(C)(C)C)C(C)(C)C)C(=O)NS(=O)(=O)C1CC1 (stereo partly drawn) [Compound 69, BocNH-P3(t-BuGly)-P2(Hyp(O—CO(NH—(2-benzoic acid))))-P1(1R,2S VinylAcca)—CONHSO2Cyclopropane] | 100 to 1000 nM | > 10000 nM
C=CC1C[C@]1(NC(=O)[C@@H]1C[C@@H](OC(=O)Nc2onc(C)c2C)CN1C(=O)[C@@H](NC(=O)OC(C)(C)C)C(C)(C)C)C(=O)NS(=O)(=O)C1CC1 (stereo partly drawn) [Compound 70, BocNH-P3(t-BuGly)-P2(Hyp(O—CO(NH—(3,4-Dimethyl-isoxazol-5-yl))))-P1(1R,2S VinylAcca)—CONHSO2Cyclopropane] | 100 to 1000 nM | > 10000 nM
C=CC1C[C@]1(NC(=O)[C@@H]1C[C@@H](OC(=O)Nc2cscc2C(=O)OC)CN1C(=O)[C@@H](NC(=O)OC(C)(C)C)C(C)(C)C)C(=O)NS(=O)(=O)C1CC1 (stereo partly drawn) [Compound 71, BocNH-P3(t-BuGly)-P2(Hyp(O—CO(NH-4-(thiophene-3-carboxylic acid methyl ester))))-P1(1R,2S VinylAcca)—CONHSO2Cyclopropane] | < 100 nM | 100 to 1000 nM
C=CC1C[C@]1(NC(=O)[C@@H]1C[C@@H](OC(=O)Nc2ncccc2C(=O)OCC)CN1C(=O)[C@@H](NC(=O)OC(C)(C)C)C(C)(C)C)C(=O)NS(=O)(=O)C1CC1 (stereo partly drawn) [Compound 72, BocNH-P3(t-BuGly)-P2(Hyp(O—CO(NH-2-(nicotinic acid ethyl ester))))-P1(1R,2S VinylAcca)—CONHSO2Cyclopropane] | < 100 nM | 1000 to 10000 nM
C=CC1C[C@]1(NC(=O)[C@@H]1C[C@@H](OC(=O)Nc2cc(C)nn2-c2ccccc2)CN1C(=O)[C@@H](NC(=O)OC(C)(C)C)C(C)(C)C)C(=O)NS(=O)(=O)C1CC1 (stereo partly drawn) [Compound 73, BocNH-P3(t-BuGly)-P2(Hyp(O—CO(NH—(5-Methyl-2-phenyl-4H-pyrazol-3-yl))))-P1(1R,2S VinylAcca)—CONHSO2 Cyclopropane] | < 100 nM | > 10000 nM
C=CC1C[C@]1(NC(=O)[C@@H]1C[C@@H](OC(=O)Nc2ccccc2C(=O)c2ccccc2)CN1C(=O)[C@@H](NC(=O)OC(C)(C)C)C(C)(C)C)C(=O)NS(=O)(=O)C1CC1 (stereo partly drawn) [Compound 74, BocNH-P3(t-BuGly)-P2(Hyp(O—CO(NH—(2-benzophenone))))-P1(1R,2S VinylAcca)—CONHSO2Cyclopropane] | < 100 nM | 100 to 1000 nM
C=CC1C[C@]1(NC(=O)[C@@H]1C[C@@H](OC(=O)Nc2ccccn2)CN1C(=O)[C@@H](NC(=O)OC(C)(C)C)C(C)(C)C)C(=O)NS(=O)(=O)C1CC1 (stereo partly drawn) [Compound 75, BocNH-P3(t-BuGly)-P2(Hyp(O—CO(NH—(pyridin-2-yl))))-P1(1R,2S VinylAcca)—CONHSO2Cyclopropane] | 100 to 1000 nM | > 10000 nM
C=CC1C[C@]1(NC(=O)[C@@H]1C[C@@H](OC(=O)Nc2cc(C(C)=O)ccc2N2CCC(C(=O)OCC)CC2)CN1C(=O)[C@@H](NC(=O)OC(C)(C)C)C(C)(C)C)C(=O)NS(=O)(=O)C1CC1 (stereo partly drawn) [Compound 76, BocNH-P3(t-BuGly)-P2(Hyp(O—CO(NH-2-(1-(4-acetyl-phenyl))-piperidine-4-carboxylic acid ethyl ester)))-P1(1R,2S VinylAcca)—CONHSO2Cyclopropane] | < 100 nM | 100 to 1000 nM
C=CC1C[C@]1(NC(=O)[C@@H]1C[C@@H](OC(=O)Nc2ccc(Cl)cc2-c2cc(C)n[nH]2)CN1C(=O)[C@@H](NC(=O)OC(C)(C)C)C(C)(C)C)C(=O)NS(=O)(=O)C1CC1 (stereo partly drawn) [Compound 78, BocNH-P3(t-BuGly)-P2(Hyp(O—CO(NH-1-(4-Chloro-2-(5-methyl-2H-pyrazol-3-yl)phenyl))))-P1(1R,2S VinylAcca)—CONHSO2Cyclopropane] | 100 to 1000 nM | > 10000 nM
C=CC1C[C@]1(NC(=O)[C@@H]1C[C@@H](OC(=O)Nc2ccccc2C(C)=O)CN1C(=O)[C@@H](NC(=O)OC(C)(C)C)C(C)(C)C)C(=O)NS(=O)(=O)C1CC1 (stereo partly drawn) [Compound 79, BocNH-P3(t-BuGly)-P2(Hyp(O—CO(NH—(2-acetophenone))))-P1(1R,2S VinylAcca)—CONHSO2Cyclopropane] | < 100 nM | 100 to 1000 nM
C=CC1C[C@]1(NC(=O)[C@@H]1C[C@@H](OC(=O)Nc2cc(C(C)=O)ccc2N2CCCCC2)CN1C(=O)[C@@H](NC(=O)OC(C)(C)C)C(C)(C)C)C(=O)NS(=O)(=O)C1CC1 (stereo partly drawn) [Compound 80, BocNH-P3(t-BuGly)-P2(Hyp(O—CO(NH-1-(2-piperidino-5-acetylphenyl))))-P1(1R,2S VinylAcca)—CONHSO2Cyclopropane] | < 100 nM | < 100 nM
C=CC1C[C@]1(NC(=O)[C@@H]1C[C@@H](OC(=O)Nc2ccccc2-c2ccc(C)o2)CN1C(=O)[C@@H](NC(=O)OC(C)(C)C)C(C)(C)C)C(=O)NS(=O)(=O)C1CC1 (stereo partly drawn) [Compound 81] | < 100 nM | < 100 nM
C=CC1C[C@]1(NC(=O)[C@@H]1C[C@@H](OC(=O)Nc2ccccc2N2CCOCC2)CN1C(=O)[C@@H](NC(=O)OC(C)(C)C)C(C)(C)C)C(=O)NS(=O)(=O)C1CC1 (stereo partly drawn) [Compound 82, BocNH-P3(t-BuGly)-P2(Hyp(O—CO(NH-2-(morpholin-4-yl-phenyl))))-P1(1R,2S VinylAcca)—CONHSO2Cyclopropane] | < 100 nM | 100 to 1000 nM
C=CC1C[C@]1(NC(=O)[C@@H]1C[C@@H](OC(=O)Nc2cc(C)ccc2-n2cccc2)CN1C(=O)[C@@H](NC(=O)OC(C)(C)C)C(C)(C)C)C(=O)NS(=O)(=O)C1CC1 (stereo partly drawn) [Compound 83, BocNH-P3(t-BuGly)-P2(Hyp(O—CO(NH—(5-Methyl-2-pyrrol-1-yl-phenyl))))-P1(1R,2S VinylAcca)—CONHSO2Cyclopropane] | < 100 nM | < 100 nM
C=CC1C[C@]1(NC(=O)[C@@H]1C[C@@H](OC(=O)Nc2cc(C(F)(F)F)ccc2N2CCCC2)CN1C(=O)[C@@H](NC(=O)OC(C)(C)C)C(C)(C)C)C(=O)NS(=O)(=O)C1CC1 (stereo partly drawn) [Compound 84, BocNH-P3(t-BuGly)-P2(Hyp(O—CO(NH—(2-Pyrrolidin-1-yl-5-trifluoromethyl-phenyl))))-P1(1R,2S VinylAcca)—CONHSO2Cyclopropane] | < 100 nM | 100 to 1000 nM
C=CC1C[C@]1(NC(=O)[C@@H]1C[C@@H](OC(=O)Nc2cc(C(F)(F)F)ccc2-n2cccc2)CN1C(=O)[C@@H](NC(=O)OC(C)(C)C)C(C)(C)C)C(=O)NS(=O)(=O)C1CC1 (stereo partly drawn) [Compound 85] | < 100 nM | 100 to 1000 nM
C=CC1C[C@]1(NC(=O)[C@@H]1C[C@@H](OC(=O)Nc2ccccc2-n2cccc2)CN1C(=O)[C@@H](NC(=O)OC(C)(C)C)C(C)(C)C)C(=O)NS(=O)(=O)C1CC1 (stereo partly drawn) [Compound 86, BocNH-P3(t-BuGly)-P2(Hyp(O—CO(NH—(2-pyrrol-1-yl-phenyl))))-P1(1R,2S VinylAcca)—CONHSO2Cyclopropane] | < 100 nM | 100 to 1000 nM
C=CC1C[C@]1(NC(=O)[C@@H]1C[C@@H](OC(=O)Nc2ccccc2-n2nc3cc(OC)c(OC)cc3n2)CN1C(=O)[C@@H](NC(=O)OC(C)(C)C)C(C)(C)C)C(=O)NS(=O)(=O)C1CC1 (stereo partly drawn) [Compound 87, BocNH-P3(t-BuGly)-P2(Hyp(O—CO(NH—(2-(5,6-Dimethoxy-benzotriazol-2-yl)-phenyl))))-P1(1R,2S VinylAcca)—CONHSO2Cyclopropane] | < 100 nM | < 100 nM
C=CC1C[C@]1(NC(=O)[C@@H]1C[C@@H](OC(=O)Nc2ccccc2-c2nnc[nH]2)CN1C(=O)[C@@H](NC(=O)OC(C)(C)C)C(C)(C)C)C(=O)NS(=O)(=O)C1CC1 (stereo partly drawn) [Compound 88, BocNH-P3(t-BuGly)-P2(Hyp(O—CO(NH—(2-(4H-[1,2,4]Triazol-3-yl)-phenyl))))-P1(1R,2S VinylAcca)—CONHSO2Cyclopropane] | < 100 nM | > 10000 nM
C=CC1C[C@]1(NC(=O)[C@@H]1C[C@@H](OC(=O)Nc2ccccc2-n2cccn2)CN1C(=O)[C@@H](NC(=O)OC(C)(C)C)C(C)(C)C)C(=O)NS(=O)(=O)C1CC1 (stereo partly drawn) [Compound 89, BocNH-P3(t-BuGly)-P2(Hyp(O—CO(NH—(2-Pyrazol-1-yl-phenyl))))-P1(1R,2S VinylAcca)—CONHSO2Cyclopropane] | < 100 nM | 100 to 1000 nM
C=CC1C[C@]1(NC(=O)[C@@H]1C[C@@H](OC(=O)Nc2ccccc2N2CCCCC2)CN1C(=O)[C@@H](NC(=O)OC(C)(C)C)C(C)(C)C)C(=O)NS(=O)(=O)C1CC1 (stereo partly drawn) [Compound 90, BocNH-P3(t-BuGly)-P2(Hyp(O—CO(NH—(2-Piperidin-1-yl-phenyl))))-P1(1R,2S VinylAcca)—CONHSO2Cyclopropane] | < 100 nM | < 100 nM
C=CC1C[C@]1(NC(=O)[C@@H]1C[C@@H](OC(=O)Nc2cc(C(=O)OCC)ccc2N2CCCCC2)CN1C(=O)[C@@H](NC(=O)OC(C)(C)C)C(C)(C)C)C(=O)NS(=O)(=O)C1CC1 (stereo partly drawn) [Compound 91, BocNH-P3(t-BuGly)-P2(Hyp(O—CO(NH—(5-carboxyethyl-2-piperidin-1-ylphenyl))))-P1(1R,2S VinylAcca)—CONHSO2Cyclopropane] | < 100 nM | 100 to 1000 nM
C=CC1C[C@]1(NC(=O)[C@@H]1C[C@@H](OC(=O)Nc2cc(C(F)(F)F)ccc2N2CCC(C(F)(F)F)CC2)CN1C(=O)[C@@H](NC(=O)OC(C)(C)C)C(C)(C)C)C(=O)NS(=O)(=O)C1CC1 (stereo partly drawn) [Compound 92, BocNH-P3(t-BuGly)-P2(Hyp(O—CO(NH—(5-Trifluoromethyl-2-(4-trifluoromethyl-piperidin-1-yl)-phenyl))))-P1(1R,2S VinylAcca)—CONHSO2Cyclopropane] | < 100 nM | < 100 nM
C=CC1C[C@]1(NC(=O)[C@@H]1C[C@@H](OC(=O)Nc2ccccc2-n2nccn2)CN1C(=O)[C@@H](NC(=O)OC(C)(C)C)C(C)(C)C)C(=O)NS(=O)(=O)C1CC1 (stereo partly drawn) [Compound 93, BocNH-P3(t-BuGly)-P2(Hyp(O—CO(NH—(2-[1,2,3]Triazol-2-yl-phenyl))))-P1(1R,2S VinylAcca)—CONHSO2Cyclopropane] | < 100 nM | 100 to 1000 nM

From patent publication US7041698B2, “Hepatitis C virus inhibitors” (Bristol-Myers Squibb Company, priority 2002, dated 2006)
